Measurements taken from US20170333388A1, “Therapeutic compound and its application in repairing diabetes-related cardiac injuries” (Numen Biotech Co., Ltd, priority 2016, published 2017).

Columns and labels:
Type in all cases: cell-based, rat
[1] = test system: adipose-derived stem cells (ADSC); experiment: transwell migration assay of ADSC in high glucose medium
Method: The stem cells were divided into five different groups, which were: Group 1: stem cell group, Group 2: high glucose destroyed stem cell group, Group 3: EGCG (2.5 μM in concentration) precondition high glucose destroyed stem cell group, Group 4: EGCG (5 μM in concentration) precondition high glucose destroyed stem cell group, Group 5: EGCG (10 μM in concentration) precondition high glucose destroyed stem cell group. […] The migration ability of the five groups was: 63±10, 36±7, 55±5, 84±6 and 144±4, respectively. In comparison with the normal stem cell group (Group 1), the migration ability of the stem cells cultured in high glucose medium was decreased (Group 1>Group 2, p<0.05). In contrast, in comparison to the high glucose destroyed stem cells, the migration ability of stem cells was recovered under different EGCG concentration precondition (Group 2<Group 3, p<0.05; Group 2<Group 4, p<0.001; Group 2<Group 5, p<0.001). Then the migration ability of stem cells under different experiment conditions was tested. The more numbers of stem cells represents the stem cells have stronger migration ability under this experiment condition.
During the analysis of protein expression level, the EGCG induced expression level of CXCR4 and p-Akt increase would be eliminated by siRNA CXCR4. […] The stem cells were divided into six groups in this test, which were: Group 1: stem cell group, Group 2: high glucose destroyed stem cell group, Group 3: EGCG (10 μM in concentration) precondition high glucose destroyed stem cell group, Group 4: siRNA CXCR4 (3 nM) was added in Group 3, Group 5: CXCR4 siRNA (10 nM) was added into Group 4. The numbers of migrated stem cells were 288±25, 36±7, 159±17, 84±6, 41±8 and 40±2 respectively.

[2] = test system: adipose-derived stem cells (ADSC); experiment: stem cell proliferation (colony) experiment in high glucose medium; conditions: high glucose destroyed stem cells (33 mM glucose)
Method: The adipose-derived stem cells were taken out from the abdominal adipose tissue of 8-month-old Wistar male rats via surgery. After cutting the adipose tissues into suitable sizes, the adipose tissues were washed by antibiotic containing saline. The washed adipose tissues were placed into a Type II collagenase (0.01%) containing saline, and were stirred and heated under 37° C. water bath for 1 hour. Then the adipose tissues were centrifuged by 3000 rpm under room temperature for 10 minute, the precipitants were extracted for cell culture in the culture dish.
In the aspect of stem cell proliferation experiment, the more the number of stem cell colonies in different experimental conditions represents for the better growth experiment condition for stem cells. The stem cells were divided into 5 different groups, which were: Group 1: stem cell group, Group 2: high glucose destroyed stem cell group, Group 3: EGCG (2.5 μM in concentration) precondition high glucose destroyed stem cell group, Group 4: EGCG (5 μM in concentration) precondition high glucose destroyed stem cell group, Group 5: EGCG (10 μM in concentration) precondition high glucose destroyed stem cell group. […] In comparison with the normal stem cell group (Group 1), the distribution of the stem cells colonies cultured in high glucose medium was inhibited (Group 1>Group 2, p<0.001). In contrast, in comparison to the high glucose destroyed stem cells, the stem cell colonies were recovered under different EGCG concentration precondition (Group 2<Group 3, p<0.05; Group 2<Group 4, p<0.05; Group 2<Group 5, p<0.01). Then the migration ability of stem cells under different experiment conditions was tested. The more numbers of stem cells represent the stem cells have stronger migration ability under this experiment condition.

[3] = test system: adipose-derived stem cells (ADSC); experiment: Western blot of protein expression in ADSC preconditioned with EGCG
Method: After the drug treatment, the culture medium was removed from the cells and rinsed with PBS buffer for three times; then 1 mL PBS was used to scrape the cells from the dish and the cells containing solution was placed in a centrifuge tube, and the solution was centrifuged by 12,000 rpm for 10 minutes, then the supernatant was removed, and the lysis buffer (50 mM Tris pH 7.5,0.5 M NaCl, 1.0 mM EDTA pH 7.5,1 mM BME, 1% NP40,10% glycerol, protease inhibitor cocktail table) was added and mixed. The mixture was placed on ice and shock once every 5 minutes for 30 minutes, and then the mixture was centrifuged at 12,000 g in 4° C. for 10 minutes, the upper layer was placed in a new tube to measure the protein concentration.
After the drug treatment, the culture medium was removed from the cells and rinsed with PBS buffer for three times; then 1 mL PBS was used to scrape the cells from the dish and the cells containing solution was placed in a centrifuge tube, and the solution was centrifuged by 12,000 rpm for 10 minutes then the supernatant was removed and extraction buffer (50 mM Tris pH 7.5-0.5 M NaCl-1.0 mM EDTA pH 7.5-10% glycerol-protease inhibitor cocktail table) was added into the mill tube, then grinded on ice. And the homogenate was then placed in a new centrifuge tube to centrifuge at 4° C. by 12,000 rpm for 10 minutes, the upper layer was placed in a new centrifuge tube for measuring the protein concentration.
[…] protein samples were added into a PBS solution, and 5× loading dye was added then mixed evenly and boiled for 10 minutes, then analyze by SDS-polyacrylamide slab gel electrophoresis. The upper layer of the SDS-polyacrylamide gel electrophoresis was 3.75% Stacking gel, and the lower layer was 5% and 12% Separating gel. The plastic plates was fixed to the electrophoresis apparatus and the electrophoresis buffer was filled into the electrophoresis tank, and then the treated protein sample was added into the U-shaped groove formed on a plastic plate, and undergo electrophoresis with 75 volts. […]

[4] = EGCG precondition at different concentrations vs high glucose destroyed stem cells

In the case of `O=C(O[C@@H]1Cc2c(O)cc(O)cc2O[C@@H]1c1cc(O)c(O)c(O)c1)c1cc(O)c(O)c(O)c1` [EGCG, epigallocatechin gallate], the “migration ability (numbers of migrated stem cells)” value (“migration ability” below) ([1]; FIG. 4, EGCG 2.5 μM precondition) was 55±5, the “migration ability” value ([1]; FIG. 4, EGCG 5 μM precondition) was 84±6 and the “migration ability” value ([1]; FIG. 4, EGCG 10 μM precondition) was 144±4. The “numbers of migrated stem cells” value ([1]; FIG. 7, Group 3: EGCG 10 μM precondition) was 159±17, the “numbers of migrated stem cells” value ([1]; FIG. 7, Group 4: EGCG 10 μM precondition, siRNA CXCR4 3 nM added) was 84±6 and the “numbers of migrated stem cells” value ([1]; FIG. 7, Group 5: EGCG 10 μM precondition, CXCR4 siRNA 10 nM added) was 41±8. It also gave a stem cell colonies ([2]; EGCG 2.5 μM precondition) of 152±17, a stem cell colonies ([2]; EGCG 5 μM precondition) of 178±22 and a stem cell colonies ([2]; EGCG 10 μM precondition) of 226±31. The “apoptosis protein cytochrome-C expression level” value [3, 4] was “decreased”, the “migration protein (CXCR4) expression level” value [3, 4] was “recovered” and the “EGCG induced increase of CXCR4 and p-Akt expression level” value ([3]; FIG. 6, in the presence of siRNA CXCR4) was “eliminated”.
